Reference: the Kinase Knowledgebase extract (Sharma et al. 2016)

Key:
[1] = target: CDK2 (human) (UniProt P24941); test: Enzyme Assay; details: concentration not given here
[2] = target: MAPK14 (human) (UniProt Q16539); test: Inhibition of MAPK14 Kinase Activity; details: concentration not given here
Sequence of MAPK14 (human) (Q16539 whole entry, looked up): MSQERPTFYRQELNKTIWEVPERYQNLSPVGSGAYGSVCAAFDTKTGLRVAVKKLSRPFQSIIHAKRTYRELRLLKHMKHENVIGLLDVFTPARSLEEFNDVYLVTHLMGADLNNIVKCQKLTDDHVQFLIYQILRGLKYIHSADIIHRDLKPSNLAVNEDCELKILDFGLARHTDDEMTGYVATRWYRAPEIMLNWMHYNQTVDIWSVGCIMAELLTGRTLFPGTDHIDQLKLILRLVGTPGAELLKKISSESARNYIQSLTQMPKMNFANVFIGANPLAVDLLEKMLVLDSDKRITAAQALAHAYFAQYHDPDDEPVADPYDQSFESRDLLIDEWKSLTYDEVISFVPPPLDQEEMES

inhibition [1] [%]	inhibition [2] [%]	Compound
89	2	COc1ncc(C2=C(c3cn(CCCO)c4ncccc34)C(=O)NC2=O)c(OC)n1
44	8	Cn1ccc(C2=C(c3cn(CCCO)c4ncccc34)C(=O)NC2=O)n1
30	31	O=C1NC(=O)C(c2cn(CCCO)c3ncccc23)=C1c1cnccn1
